Several values for one entry are separate records, joined by “and”; a condition that tells them apart may be missing. Equal values may be shown once.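 All cell lines were grown in 96-well plates and treated with compound for 48 hours. GI50: concentration for 50% inhibition of growth. TGI is the concentration that stops growth completely.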
Assays:
Assay in all cases: NCI tumour cell line growth inhibition, 48 h
786-0 renal = system: 786-0 renal
A498 renal = system: A498 renal
ACHN renal = system: ACHN renal
CAKI-1 renal = system: CAKI-1 renal
HCT-116 colon = system: HCT-116 colon
HOP-62 NSCLC = system: HOP-62 NSCLC
MALME-3M melanoma = system: MALME-3M melanoma
MDA-MB-435 = system: MDA-MB-435
NCI-H522 lung = system: NCI-H522 lung
NCI/ADR-RES ovarian = system: NCI/ADR-RES ovarian
OVCAR-4 ovarian = system: OVCAR-4 ovarian
OVCAR-5 ovarian = system: OVCAR-5 ovarian
SF-268 CNS = system: SF-268 CNS
SK-MEL-2 melanoma = system: SK-MEL-2 melanoma
SK-MEL-28 melanoma = system: SK-MEL-28 melanoma
SK-MEL-5 melanoma = system: SK-MEL-5 melanoma
SN12C renal = system: SN12C renal
SNB-19 CNS = system: SNB-19 CNS
K-562 leukemia = system: K-562 leukemia

Row | Structure (SMILES) | TGI (786-0 renal) [µM] | TGI (A498 renal) [µM] | TGI (ACHN renal) [µM] | TGI (CAKI-1 renal) [µM] | TGI (HCT-116 colon) [µM] | TGI (HOP-62 NSCLC) [µM] | TGI (MALME-3M melanoma) [µM] | TGI (MDA-MB-435) [µM] | TGI (NCI-H522 lung) [µM] | TGI (NCI/ADR-RES ovarian) [µM] | TGI (OVCAR-4 ovarian) [µM] | TGI (OVCAR-5 ovarian) [µM] | TGI (SF-268 CNS) [µM] | TGI (SK-MEL-2 melanoma) [µM] | TGI (SK-MEL-28 melanoma) [µM] | TGI (SK-MEL-5 melanoma) [µM] | TGI (SN12C renal) [µM] | TGI (SNB-19 CNS) [µM] | TGI (K-562 leukemia) [µM] | GI50 (OVCAR-4 ovarian)
1 | COCC12CCC(OC)C34C5CC6(O)C(OC)C=C(C5C6OC(=O)c5ccccc5)C(C(OC)C13)C4N(C)C2 (stereo unspecified) | > 100 | > 100 | > 100 | > 100 | > 100 | > 100 | > 100 | > 100 | > 100 | > 100 | > 100 | > 100 | > 100 | > 100 | > 100 | > 100 | > 100 | > 100 |  | 
2 | COc1ccccc1N1C(=O)CSC1c1cc(OC)c(OC)c(OC)c1 (stereo unspecified) | > 100 | > 100 | > 100 | > 100 | > 100 | > 100 | > 100 | 40 | > 76.8 | > 100 | > 100 | > 100 | > 100 | > 100 | > 100 | > 100 | > 100 | > 20.8 | > 100 | 
3 | Cc1cccc(N=C/C=C(\Cl)c2ccc3ccccc3c2)c1 | 34.9 | > 100 | 30.7 | 34.5 | 9.02 | 35.4 | 36.4 | 39.8 | > 78.7 | 47.7 | 41.2 | > 65.6 | > 79.4 | 68.9 | 63.6 | 37.1 | 41.1 | 33 | 40 | 
4 | COC(=O)CC(CNC(=O)OCc1ccccc1)OCc1ccc(OC)cc1 (stereo unspecified) | > 100 | > 100 | > 100 | > 100 | > 100 |  | > 100 | > 100 | > 100 | > 100 | > 100 | > 100 |  | > 100 | > 100 | > 100 | > 100 | > 100 | > 100 | 
5 | COC(=O)[C@H](COC(C)(C)C)NC(=O)N[C@H](C)c1ccccc1 | > 100 | > 100 | > 100 | > 100 | > 100 | > 100 |  | > 100 | > 100 | > 100 | > 100 | > 100 | > 100 | > 100 | > 100 | > 100 | > 100 | > 100 | > 100 | 
6 | CCN(CC)C(=S)N/N=C/c1cc(OC)ccc1O | > 100 | 18 | > 100 |  | > 100 | > 100 | > 100 | > 100 | > 100 | 40.4 | > 100 | > 100 | 11.3 | > 100 | > 100 | 70.5 | 90.6 | > 100 | > 100 | 
7 | CN1c2ccccc2C(=O)NC12CCNCC2 | > 100 | > 100 | > 100 |  | > 100 | > 100 | > 100 | > 100 |  | > 100 | > 100 | > 100 | > 100 |  | > 100 | > 100 |  | > 100 | > 100 | 
8 | C/C(=C\CNc1ncnc2c1ncn2CCC(=O)OC(C)(C)C)CO | > 100 | > 100 | > 100 | > 100 | > 100 | > 100 | > 100 | > 100 | > 100 | > 100 | > 100 | > 100 | > 100 |  | > 100 | > 100 | > 100 | > 100 | > 100 | 
9 | CC(Cc1cccc2c1Nc1ccccc1S2)N(C)CCO (stereo unspecified) | > 100 | 93.9 | > 100 | > 100 | > 100 | > 100 | > 100 | > 100 | > 100 | > 100 | > 100 | > 100 | > 100 |  | > 100 | > 100 | > 100 | > 100 | > 100 | 
10 | Nc1nc(N)c2ncn(-c3ccccc3)c2n1 | > 100 | > 100 | > 100 | > 100 | > 100 | > 100 | > 100 | > 100 | > 100 | > 100 | > 100 | > 100 | > 100 | > 100 | > 100 | > 100 | > 100 | > 100 |  | 21.8 µM and > 100 µM
11 | COc1ccccc1NC(=O)C(=O)Cc1cnc2ccccc2n1 | > 100 | > 100 | > 100 | > 100 | > 100 |  |  | > 100 |  | > 100 | > 100 | > 100 | > 100 | > 100 | > 100 | > 100 | > 100 | > 100 | > 100 | 
12 | O=C(CCc1ccc(O)c(O)c1)NCCc1cc(O)c(O)c(O)c1 | 32.6 | > 100 | > 100 |  | 33 | > 100 | > 100 | 31.8 | 40.2 | 40.9 | 34.5 | > 100 | > 100 | 50.6 | > 100 | 66.2 | 31.9 | > 100 | 41.4 | 
13 | Cc1cnc2c(c1)C(=O)N(c1ccc([N+](=O)[O-])cc1)S2(=O)=O | > 100 | > 100 | > 100 | > 100 | > 100 | > 100 | 63.4 | > 100 | > 100 | > 100 | > 100 | > 100 | > 100 | > 100 | > 100 | > 100 | > 100 | > 100 |  | 

— PubChem BioAssay (NCI)
